# In patent publication US7304174B2, “CaSR antagonist” (Japan Tobacco Inc., priority 2003, dated 2007):
# Tests used:
# CYP2D6 = molecular target: T1, CYP2D6 (Homo sapiens, UniProt P10635); assay: Metabolic enzyme CYP2D6 inhibitory activity (inhibition measurement kit); format: in vitro ADME; conditions: enzyme activity free of test compound as 100%, >10 means over 10 μM
# T1 construct: purchased BD Bioscience
# Method: Using a metabolic enzyme CYP2D6 inhibition measurement kit (BD Bioscience) and following the manual of the kit, the inhibitory activity of the test compound was measured. With the enzyme activity free of the test compound as 100%, the concentration (IC50) showing 50% inhibition was determined. The results are shown in Table 63 and Table 64, wherein “>10” means over 10 μM.
# human calcium receptor = molecular target: T2, human calcium receptor (Homo sapiens, UniProt P41180); assay: Evaluation of antagonistic action on calcium receptor using reporter gene (luciferase); format: cell-based; conditions: transformed rat adrenal derived cells, 5 mM calcium chloride, culture 4 hrs, luciferase activity; read-out: Reporter gene assay (IC50, concentration showing 50% inhibitory rate)
# T2 construct: expressed in transfected cells; host or cells: cell strain derived from rat adrenal, co-transformed with luciferase cDNA
# T2 sequence (P41180 20-1078): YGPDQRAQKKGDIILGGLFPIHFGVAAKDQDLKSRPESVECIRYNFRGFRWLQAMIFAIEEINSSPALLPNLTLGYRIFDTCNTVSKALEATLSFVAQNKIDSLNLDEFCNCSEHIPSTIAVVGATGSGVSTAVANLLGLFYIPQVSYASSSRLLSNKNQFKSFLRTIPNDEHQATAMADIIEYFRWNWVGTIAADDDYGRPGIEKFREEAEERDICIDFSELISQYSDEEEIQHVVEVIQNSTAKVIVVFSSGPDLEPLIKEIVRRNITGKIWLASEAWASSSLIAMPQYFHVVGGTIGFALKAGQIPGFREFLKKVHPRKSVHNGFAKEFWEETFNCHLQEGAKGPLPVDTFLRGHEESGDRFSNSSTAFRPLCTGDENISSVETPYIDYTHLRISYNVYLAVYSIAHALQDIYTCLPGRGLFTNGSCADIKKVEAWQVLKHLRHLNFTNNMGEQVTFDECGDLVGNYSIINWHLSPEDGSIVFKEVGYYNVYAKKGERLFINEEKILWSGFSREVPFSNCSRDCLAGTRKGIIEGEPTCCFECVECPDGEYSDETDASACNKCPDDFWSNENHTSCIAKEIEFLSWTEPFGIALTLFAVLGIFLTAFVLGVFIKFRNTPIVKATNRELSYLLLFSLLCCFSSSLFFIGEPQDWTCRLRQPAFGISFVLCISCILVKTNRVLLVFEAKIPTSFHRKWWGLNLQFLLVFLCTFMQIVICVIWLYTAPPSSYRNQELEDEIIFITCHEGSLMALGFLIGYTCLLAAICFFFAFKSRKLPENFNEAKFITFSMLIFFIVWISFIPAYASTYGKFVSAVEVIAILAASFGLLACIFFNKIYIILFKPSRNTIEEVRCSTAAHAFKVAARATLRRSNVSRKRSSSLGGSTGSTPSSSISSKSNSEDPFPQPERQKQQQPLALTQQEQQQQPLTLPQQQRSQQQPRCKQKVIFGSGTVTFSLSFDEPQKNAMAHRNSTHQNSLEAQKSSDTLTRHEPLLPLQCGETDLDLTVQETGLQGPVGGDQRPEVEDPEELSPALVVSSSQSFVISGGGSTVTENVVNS
# How it was run: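 Rat adrenal-derived cells transfected with luciferase and human calcium receptor cDNA, in F12 with 0.5% dialyzed horse serum and 0.25% dialyzed fetal bovine serum. Luciferase luminescence gave % inhibition vs control and blank; IC50 at 50% inhibition.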
# PTH secretion = PTH secretion action, Experimental Example 2 (serum PTH after oral administration); format: in vivo, male SD rats; conditions: test compound administration group, 1 mg/5 ml/kg oral, rats fasted 20 hr
# Method: The test compound was orally administered to 5 to 9-week-old male SD rats (Charles River Japan, Inc.) fasted for 20 hr, using a solvent (0.5% methyl cellulose solution) at a dose of 1 mg/5 ml/kg. A solvent alone was orally administered to the control group at a dose of 5 ml/kg. The blood was drawn from the tail vein immediately before and, 15 min, 30 min, 60 min and 120 min after the administration of the test compound, and serum was obtained. The serum PTH concentration was measured using rat PTH ELISA kit (Amersham Biosciences).
# T1 sequence (P10635 whole entry): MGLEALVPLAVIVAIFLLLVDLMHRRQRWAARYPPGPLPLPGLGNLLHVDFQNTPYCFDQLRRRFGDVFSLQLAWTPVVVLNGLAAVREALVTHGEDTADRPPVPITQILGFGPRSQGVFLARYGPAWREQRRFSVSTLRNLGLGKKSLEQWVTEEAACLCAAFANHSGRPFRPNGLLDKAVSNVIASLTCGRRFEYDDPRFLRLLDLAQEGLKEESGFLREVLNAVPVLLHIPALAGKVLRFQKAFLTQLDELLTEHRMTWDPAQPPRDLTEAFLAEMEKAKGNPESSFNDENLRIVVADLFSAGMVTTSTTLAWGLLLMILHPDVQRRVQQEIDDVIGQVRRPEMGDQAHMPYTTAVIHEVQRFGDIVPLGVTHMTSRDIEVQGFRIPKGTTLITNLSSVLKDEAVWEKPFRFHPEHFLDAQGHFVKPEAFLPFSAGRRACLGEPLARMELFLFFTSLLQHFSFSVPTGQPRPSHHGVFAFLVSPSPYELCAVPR
structure (smiles),measurement,setting,value
CC(OC[C@H](O)CNC(C)(C)Cc1ccc2ccccc2c1)c1ccccc1OCc1ccccc1C(=O)O (stereo partly shown) [2-20′],IC50,CYP2D6,> 10000 nM
same,IC50,human calcium receptor,21 nM
"Cc1cc(-c2ccccc2[C@@H](C)OC[C@H](O)CNC(C)(C)Cc2ccc(Cl)c(F)c2)ccc1C(=O)O [Example 1-2, 2′-[(1R)-[(2R)-3-[[1-(4-Chloro-3-fluorophenyl)-2-methylpropan-2-yl]amino]-2-hydroxypropoxy]ethyl]-3-methylbiphenyl-4-carboxylic acid]",Serum PTH concentration 15 min later,PTH secretion,28.5 ± 5.3 pg/mL
same,Serum PTH concentration 30 min later,PTH secretion,27.1 ± 2.3 pg/mL
same,Serum PTH concentration 60 min later,PTH secretion,10.5 ± 1.3 pg/mL
same,Serum PTH concentration 120 min later,PTH secretion,12.4 ± 1.6 pg/mL
same,IC50,human calcium receptor,13 nM
"Cc1ccc(CC(C)(C)NC[C@@H](O)CO[C@H](C)c2ccccc2-c2ccc(C(=O)O)c(C)c2)cc1Cl [Example 1-3, 2′-[1-[(2R)-3-[[1-(3-chloro-4-methylphenyl)-2-methylpropan-2-yl]amino]-2-hydroxypropoxy]ethyl]-3-methylbiphenyl-4-carboxylic acid]",Serum PTH concentration 15 min later,PTH secretion,23.8 ± 1.6 pg/mL
same,Serum PTH concentration 30 min later,PTH secretion,25.1 ± 3.9 pg/mL
same,Serum PTH concentration 60 min later,PTH secretion,9.5 ± 0.5 pg/mL
same,Serum PTH concentration 120 min later,PTH secretion,11.6 ± 0.9 pg/mL
same,IC50,human calcium receptor,10 nM
"Cc1cc(-c2ccccc2[C@@H](C)OC[C@H](O)CNC(C)(C)Cc2ccc(Cl)cc2F)ccc1C(=O)O [Example 1-6, 2′-[1-[(2R)-3-[[1-(4-chloro-2-fluorophenyl)-2-methylpropan-2-yl]amino]-2-hydroxypropoxy]ethyl]-3-methylbiphenyl-4-carboxylic acid]",Serum PTH concentration 15 min later,PTH secretion,28.9 ± 6.9 pg/mL
same,Serum PTH concentration 30 min later,PTH secretion,19.2 ± 3.1 pg/mL
same,Serum PTH concentration 60 min later,PTH secretion,10.0 ± 1.7 pg/mL
same,Serum PTH concentration 120 min later,PTH secretion,8.3 ± 0.6 pg/mL
same,IC50,human calcium receptor,20 nM
"COc1cc(-c2ccccc2[C@@H](C)OC[C@H](O)CNC(C)(C)Cc2ccc3ccccc3c2)ccc1C(=O)O [Example 1-26, 2′-[1-[(2R)-3-[[1-(naphthalen-2-yl)-2-methylpropan-2-yl]amino]-2-hydroxypropoxy]ethyl]-3-methoxybiphenyl-4-carboxylic acid]",IC50,CYP2D6,> 10000 nM
same,IC50,human calcium receptor,14 nM
"COc1cc(C(=O)O)ccc1-c1ccccc1[C@@H](C)OC[C@H](O)CNC(C)(C)Cc1ccc2ccccc2c1 [Example 1-27, 2′-[1-[(2R)-3-[[1-(naphthalen-2-yl)-2-methylpropan-2-yl]amino]-2-hydroxypropoxy]ethyl]-2-methoxybiphenyl-4-carboxylic acid]",IC50,CYP2D6,> 10000 nM
same,IC50,human calcium receptor,14 nM
"CCc1cc(-c2ccccc2[C@@H](C)OC[C@H](O)CNC(C)(C)Cc2ccc3ccccc3c2)ccc1C(=O)O [Example 1-30, 3-ethyl-2′-[1-[(2R)-3-[[1-(naphthalen-2-yl)-2-methylpropan-2-yl]amino]-2-hydroxypropoxy]ethyl]biphenyl-4-carboxylic acid]",Serum PTH concentration 15 min later,PTH secretion,26.1 ± 2.3 pg/mL
same,Serum PTH concentration 30 min later,PTH secretion,24.2 ± 3.3 pg/mL
same,Serum PTH concentration 60 min later,PTH secretion,18.2 ± 1.3 pg/mL
same,Serum PTH concentration 120 min later,PTH secretion,13.8 ± 0.6 pg/mL
same,IC50,human calcium receptor,7 nM
"CC(C)c1cc(-c2ccccc2[C@@H](C)OC[C@H](O)CNC(C)(C)Cc2ccc3ccccc3c2)ccc1C(=O)O [Example 1-32, 2′-[1-[(2R)-3-[[1-(naphthalen-2-yl)-2-methylpropan-2-yl]amino]-2-hydroxypropoxy]ethyl]-3-isopropylbiphenyl-4-carboxylic acid]",IC50,"CYP2D6; human, CYP2D6 inhibition measurement kit (BD Bioscience)",10000 nM
same,IC50,human calcium receptor,2 nM
"CCc1cc(-c2ccccc2[C@@H](C)OC[C@H](O)CNC(C)(C)Cc2ccc(C)c(F)c2)ccc1C(=O)O [Example 1-33, 3-ethyl-2′-[1-[(2R)-3-[[1-(3-fluoro-4-methylphenyl)-2-methylpropan-2-yl]amino]-2-hydroxypropoxy]ethyl]biphenyl-4-carboxylic acid]",IC50,CYP2D6,> 10000 nM
same,IC50,human calcium receptor,5 nM
"Cc1ccc(CC(C)(C)NC[C@@H](O)CO[C@H](C)c2ccccc2-c2ccc(C(=O)O)c(C(C)C)c2)cc1F [Example 1-34, 2′-[1-[(2R)-3-[[1-(3-fluoro-4-methylphenyl)-2-methylpropan-2-yl]amino]-2-hydroxypropoxy]ethyl]-3-isopropylbiphenyl-4-carboxylic acid]",IC50,CYP2D6,> 10000 nM
same,IC50,human calcium receptor,5 nM
"Cc1ccc(CC(C)(C)NC[C@@H](O)CO[C@H](C)c2ccccc2Oc2ccc(C(=O)O)c([N+](=O)[O-])c2)cc1F [Example 2-29, 4-[2-[1-[(2R)-3-[[1-(3-fluoro-4-methylphenyl)-2-methylpropan-2-yl]amino]-2-hydroxypropoxy]ethyl]phenoxy]-2-nitrobenzoic acid]",IC50,human calcium receptor,11 nM
"Cc1ccc(CC(C)(C)NC[C@@H](O)CO[C@H](C)c2ccccc2Oc2ccc(C(=O)O)cc2Cl)cc1F [Example 2-30, 4-[2-[1-[(2R)-3-[[1-(3-fluoro-4-methylphenyl)-2-methylpropan-2-yl]amino]-2-hydroxypropoxy]ethyl]phenoxy]-3-chlorobenzoic acid]",IC50,human calcium receptor,3 nM
"Cc1ccc(CC(C)(C)NC[C@@H](O)CO[C@H](C)c2ccccc2Oc2ccc(C(=O)O)c(Cl)c2)cc1F [Example 2-31, 4-[2-[1-[(2R)-3-[[1-(3-fluoro-4-methylphenyl)-2-methylpropan-2-yl]amino]-2-hydroxypropoxy]ethyl]phenoxy]-2-chlorobenzoic acid]",IC50,human calcium receptor,16 nM
"Cc1ccc(CC(C)(C)NC[C@@H](O)CO[C@H](C)c2ccccc2Oc2ccc(C(=O)O)c(C(F)(F)F)c2)cc1F [Example 2-32, 4-[2-[1-[(2R)-3-[[1-(3-fluoro-4-methylphenyl)-2-methylpropan-2-yl]amino]-2-hydroxypropoxy]ethyl]phenoxy]-2-trifluoromethylbenzoic acid]",IC50,human calcium receptor,14 nM
"Cc1ccc(CC(C)(C)NC[C@@H](O)CO[C@H](C)c2ccccc2Oc2ccc(C(=O)O)cc2C(F)(F)F)cc1F [Example 2-33, 4-[2-[1-[(2R)-3-[[1-(3-fluoro-4-methylphenyl)-2-methylpropan-2-yl]amino]-2-hydroxypropoxy]ethyl]phenoxy]-3-trifluoromethylbenzoic acid]",IC50,human calcium receptor,2 nM
"Cc1ccc(CC(C)(C)NC[C@@H](O)CO[C@H](C)c2ccccc2Oc2ccc(C(=O)O)cc2F)cc1F [Example 2-34, 4-[2-[1-[(2R)-3-[[1-(3-fluoro-4-methylphenyl)-2-methylpropan-2-yl]amino]-2-hydroxypropoxy]ethyl]phenoxy]-3-fluorobenzoic acid]",IC50,human calcium receptor,6 nM
"C[C@@H](OC[C@H](O)CNC(C)(C)Cc1ccc(Cl)c(F)c1)c1ccccc1Oc1ccc(C(=O)O)cc1 [Example 2-35, 4-[2-[1-[(2R)-3-[[1-(4-chloro-3-fluorophenyl)-2-methylpropan-2-yl]amino]-2-hydroxypropoxy]ethyl]phenoxy]benzoic acid]",IC50,human calcium receptor,11 nM
"Cc1cc(C(=O)O)ccc1Oc1ccccc1C(C)OC[C@H](O)CNC(C)(C)Cc1ccc(Cl)c(F)c1 (stereo partly drawn) [Example 2-36, 4-[2-[1-[(2R)-3-[[1-(4-chloro-3-fluorophenyl)-2-methylpropan-2-yl]amino]-2-hydroxypropoxy]ethyl]phenoxy]-5-methylbenzoic acid]",IC50,human calcium receptor,13 nM
